Assays:
[1] = Biodistribution of 18F-labelled tracers in rats; assay type: in vivo
Description: [^18F]Fluoride, in the form of H^18F, was produced by the ^18O(p,n)^18F nuclear reaction by bombardment of ^18O-enriched water target. The aqueous [^18F]fluoride solution was added to a 2.5-mL wheaton vial containing dry acetonitrile (1 mL), Kryptofix 2.2.2 (5 mg, 13.3 μmol) and potassium carbonate (2 mg, 14.5 μmol). The solvent was evaporated under a stream of nitrogen at 90° C. with a reducing vacuum. This azeotropic drying was repeated twice by further addition of acetonitrile (2×1 mL). The tosylate precursor 2-(2-(4-(2-tosylethoxy)phenyl)-6-chloroimidazo[1,2-a]pyridin-3-yl)-N,N-diethylacetamide (2 mg, 3.6 μmol) was dissolved in acetonitrile (1 ml) and added to the dried K222.K2CO3.KF complex. Stirring and heating at 90° C. continued for 10 to 15 mins before the reaction mixture was diluted with mobile phase and purified by reverse phase HPLC on an Alltech Alltima, C18, 10μ, 250×22 mm column eluting at 10 mLs/min with 45% acetonitrile, 55% water with 0.1% TFA.
(§1) The biodistribution of PBR132* was undertaken in SD rats and analysis up to 4 h p.i. in the brain and peripheral tissues was performed. The specificity and selectivity of the tracer were assessed by pre-treatment with PBR and Central benzodiazepine receptor (CBR) specific ligands (1 mg/kg) 5 min prior to injection of PBR132*.
(§2) The biodistribution of PBR 147* was performed in SD rats and brain and peripheral tissues were analysised at 15, 30 min, 1, and 4 h p.i. The specificity and selectivity of the tracer was assessed by pre-treatment of the animals with the PBR ligands PK11195 and Ro 5-4864 and with Flumazenil for CBR at 1 mg/kg 5 min prior to injection of PBR 147*
(§3) The biodistribution of PBR102* and PBR111* were performed in SD rats and brain and peripheral tissues analysed at 15, 30 min, 1, and 4 h p.i. The specificity and selectivity of the tracers were assessed by pre-treatment with the PBR ligands PK11195 and Ro 5-4864 and with Flumazenil for CBR at 1 mg/kg 5 min prior to injection of the corresponding tracers.
(§4) The specificity and selectivity of the tracers were assessed by pre-treatment with the PBR ligands PK11195 and Ro 5-4864 and with Flumazenil for CBR at 1 mg/kg 5 min prior to injection of the corresponding tracers.

[2] = biological target: T1, peripheral benzodiazepine receptors (Rattus norvegicus, UniProt P16257); experiment: In vivo blocking / competition of tracer uptake by pre-treatment with PBR and CBR ligands; details: rats; for Tracer uptake after pre-treatment with PK 11195 / Tracer uptake after pre-treatment with Ro 5-4864: PBR-expressing tissues (brain/peripheral organs, adrenals apart); for Tracer uptake after pre-treatment with flumazenil (central benzodiazepine ligand): flumazenil 1 mg/kg 5 min prior to tracer, brain or peripheral organs
T1 construct: high uptake in the tissues which have known PBR sites; from tissue; host or cells: organs of living SD rats (brain and peripheral tissues), in vivo
Description: The criteria for significance were **p<0.01 (highly significant) and *p<0.05 (significant). No stars implies not statistical difference from normals or controls.
as §1, §2, §3, §4

[3] = system: central benzodiazepine receptors; experiment: In vitro binding, [3H]-Flumazenil, brain cortex membrane preparation; details: @ 10^−5M, [3H]-Flumazenil
Description: Non-specific binding was determined with Flumazenil (20 μM). In both cases, incubations were terminated by rapid filtration through Whatman GF/B glass fibre. Filters were immediately washed 3 times with 5 mL ice-cold 50 mM Tris/HCl at pH 7.4. Filters were counted in a β-scintillation counter (Packard) to measure the amount of bound radioactivity. The IC50 of the compounds for the peripheral benzodiazepine binding site and the central benzodiazepine receptor were calculated using Kell 6 software.

[4] = SD rats, 15 min, decay correction not stated
[5] = SD rats, 4 hours, decay correction not stated
[6] = rats, 15 min, corrected for decay of 18F
[7] = rats, 30 min, corrected for decay of 18F
[8] = rats, 60 min, corrected for decay of 18F
[9] = rats, 4 hours, corrected for decay of 18F

CCN(CC)C(=O)Cc1c(-c2ccc(C(C)(C)C)cc2)nc2ccc([18F])nn12 [PBR132*, 2-(2-(4-tert-butylphenyl)-6-fluoroimidazo[1,2-b]pyridazin-3-yl)-N,N-diethylacetamide]
Biodistribution: Bone [1, 4]: 1 % ID/g
Biodistribution: Heart [1, 4]: 8 % ID/g
Biodistribution: Kidney [1, 4]: 4 % ID/g
Biodistribution: Lungs [1, 4]: 16 % ID/g
Biodistribution: Olfactory bulbs [1, 4]: 0.63 % ID/g
Biodistribution: Adrenals ([1]; SD rats, 30 min, decay correction not stated): 13 % ID/g
Biodistribution: Bone [1, 5]: 3.3 % ID/g
Biodistribution: Heart [1, 5]: less than 2.3 % ID/g
Biodistribution: Kidney [1, 5]: less than 2.3 % ID/g
Biodistribution: Lungs [1, 5]: less than 2.3 % ID/g
Biodistribution: Olfactory bulbs [1, 5]: 0.25 % ID/g
Blood activity level / concentration in the blood over the 4 h study period ([1]; SD rats, throughout 15 min to 4 h): low
Biodistribution: Adrenals [1, 6]: 10.03 ± 1.11 % ID/g
Biodistribution: Bladder [1, 6]: 0.73 ± 0.33 % ID/g
Biodistribution: Blood [1, 6]: 0.41 ± 0.05 % ID/g
Biodistribution: Bone [1, 6]: 1.04 ± 0.14 % ID/g
Biodistribution: Brain [1, 6]: 0.35 ± 0.03 % ID/g
Biodistribution: GIT [1, 6]: 1.08 ± 0.08 % ID/g
Biodistribution: Heart [1, 6]: 8.13 ± 0.77 % ID/g
Biodistribution: Kidney [1, 6]: 4.10 ± 0.28 % ID/g
Biodistribution: Liver [1, 6]: 1.22 ± 0.17 % ID/g
Biodistribution: Lungs [1, 6]: 16.09 ± 2.56 % ID/g
Biodistribution: Muscle [1, 6]: 0.89 ± 0.28 % ID/g
Biodistribution: Olfactory bulbs [1, 6]: 0.63 ± 0.09 % ID/g
Biodistribution: Pancreas [1, 6]: 2.01 ± 0.26 % ID/g
Biodistribution: Skin [1, 6]: 0.60 ± 0.09 % ID/g
Biodistribution: Spleen [1, 6]: 5.85 ± 0.93 % ID/g
Biodistribution: Stomach [1, 6]: 0.58 ± 0.19 % ID/g
Biodistribution: Testes [1, 6]: 0.31 ± 0.03 % ID/g
Biodistribution: Thymus [1, 6]: 0.78 ± 0.20 % ID/g
Biodistribution: Thyroid [1, 6]: 8.87 ± 1.06 % ID/g
Biodistribution: Adrenals [1, 7]: 13.21 ± 1.16 % ID/g
Biodistribution: Bladder [1, 7]: 0.87 ± 0.36 % ID/g
Biodistribution: Blood [1, 7]: 0.32 ± 0.05 % ID/g
Biodistribution: Bone [1, 7]: 1.25 ± 0.18 % ID/g
Biodistribution: Brain [1, 7]: 0.23 ± 0.02 % ID/g
Biodistribution: GIT [1, 7]: 1.36 ± 0.22 % ID/g
Biodistribution: Heart [1, 7]: 8.34 ± 0.86 % ID/g
Biodistribution: Kidney [1, 7]: 3.94 ± 0.54 % ID/g
Biodistribution: Liver [1, 7]: 1.18 ± 0.33 % ID/g
Biodistribution: Lungs [1, 7]: 11.58 ± 2.11 % ID/g
Biodistribution: Muscle [1, 7]: 0.91 ± 0.10 % ID/g
Biodistribution: Olfactory bulbs [1, 7]: 0.46 ± 0.11 % ID/g
Biodistribution: Pancreas [1, 7]: 1.97 ± 0.32 % ID/g
Biodistribution: Skin [1, 7]: 0.65 ± 0.08 % ID/g
Biodistribution: Spleen [1, 7]: 6.89 ± 0.80 % ID/g
Biodistribution: Stomach [1, 7]: 0.64 ± 0.11 % ID/g
Biodistribution: Testes [1, 7]: 0.31 ± 0.03 % ID/g
Biodistribution: Thymus [1, 7]: 0.80 ± 0.06 % ID/g
Biodistribution: Thyroid [1, 7]: 9.15 ± 0.87 % ID/g
Biodistribution: Adrenals [1, 8]: 11.24 ± 2.03 % ID/g
Biodistribution: Bladder [1, 8]: 0.84 ± 0.08 % ID/g
Biodistribution: Blood [1, 8]: 0.17 ± 0.00 % ID/g
Biodistribution: Bone [1, 8]: 2.06 ± 0.10 % ID/g
Biodistribution: Brain [1, 8]: 0.12 ± 0.00 % ID/g
Biodistribution: GIT [1, 8]: 1.78 ± 0.04 % ID/g
Biodistribution: Heart [1, 8]: 6.87 ± 0.53 % ID/g
Biodistribution: Kidney [1, 8]: 3.24 ± 0.15 % ID/g
Biodistribution: Liver [1, 8]: 0.67 ± 0.06 % ID/g
Biodistribution: Lungs [1, 8]: 6.40 ± 0.50 % ID/g
Biodistribution: Muscle [1, 8]: 0.50 ± 0.03 % ID/g
Biodistribution: Olfactory bulbs [1, 8]: 0.36 ± 0.05 % ID/g
Biodistribution: Pancreas [1, 8]: 1.20 ± 0.19 % ID/g
Biodistribution: Skin [1, 8]: 0.64 ± 0.07 % ID/g
Biodistribution: Spleen [1, 8]: 5.56 ± 0.67 % ID/g
Biodistribution: Stomach [1, 8]: 0.47 ± 0.05 % ID/g
Biodistribution: Testes [1, 8]: 0.32 ± 0.01 % ID/g
Biodistribution: Thymus [1, 8]: 0.88 ± 0.07 % ID/g
Biodistribution: Thyroid [1, 8]: 18.30 ± 1.00 % ID/g
Biodistribution: Adrenals [1, 9]: 13.51 ± 0.61 % ID/g
Biodistribution: Bladder [1, 9]: 0.99 ± 0.30 % ID/g
Biodistribution: Blood [1, 9]: 0.07 ± 0.00 % ID/g
Biodistribution: Bone [1, 9]: 3.28 ± 0.65 % ID/g
Biodistribution: Brain [1, 9]: 0.07 ± 0.00 % ID/g
Biodistribution: GIT [1, 9]: 2.93 ± 0.39 % ID/g
Biodistribution: Heart [1, 9]: 4.71 ± 0.31 % ID/g
Biodistribution: Kidney [1, 9]: 2.31 ± 0.17 % ID/g
Biodistribution: Liver [1, 9]: 0.31 ± 0.03 % ID/g
Biodistribution: Lungs [1, 9]: 2.42 ± 0.25 % ID/g
Biodistribution: Muscle [1, 9]: 0.24 ± 0.06 % ID/g
Biodistribution: Olfactory bulbs [1, 9]: 0.25 ± 0.03 % ID/g
Biodistribution: Pancreas [1, 9]: 0.57 ± 0.10 % ID/g
Biodistribution: Skin [1, 9]: 0.67 ± 0.17 % ID/g
Biodistribution: Spleen [1, 9]: 2.64 ± 0.36 % ID/g
Biodistribution: Stomach [1, 9]: 0.72 ± 0.24 % ID/g
Biodistribution: Testes [1, 9]: 0.42 ± 0.06 % ID/g
Biodistribution: Thymus [1, 9]: 1.02 ± 0.06 % ID/g
Biodistribution: Thyroid [1, 9]: 7.41 ± 0.68 % ID/g
Uptake in tissues which have known PBR sites ([1]; rats, in vivo biodistribution): high uptake
Tracer uptake after pre-treatment with PK 11195 ([2]; PK 11195 1 mg/kg 5 min prior to tracer): decreased
Tracer uptake after pre-treatment with PK 11195 ([2]; PK 11195 1 mg/kg 5 min prior to tracer, listed as [^18F]PBR132): blocking effect
Tracer uptake in the adrenals after pre-treatment with PK 11195 ([2]; PK 11195 1 mg/kg 5 min prior to tracer, adrenals): increase
Tracer uptake after pre-treatment with Ro 5-4864 ([2]; Ro 5-4864 1 mg/kg 5 min prior to tracer): decreased
Tracer uptake after pre-treatment with Ro 5-4864 ([2]; Ro 5-4864 1 mg/kg 5 min prior to tracer, listed as [^18F]PBR132): blocking effect
Tracer uptake in the adrenals after pre-treatment with Ro 5-4864 ([2]; Ro 5-4864 1 mg/kg 5 min prior to tracer, adrenals): increase
Tracer uptake after pre-treatment with flumazenil (central benzodiazepine ligand) [2]: no effect
Tracer uptake after pre-treatment with flumazenil (central benzodiazepine ligand) ([2]; listed as [^18F]PBR132): does not reduce
Tracer uptake after pre-treatment with the non-radioactive analogue ([2]; non-radioactive analogue 1 mg/kg, PBR-expressing tissues): blocking effect

CCN(CC)C(=O)Cc1c(-c2ccc(OCCCF)cc2)nn2c(C)cc(C)nc12 [PBR 146, 2-(2-(4-(3-fluoropropoxy)phenyl)-5,7-dimethylpyrazolo[1,5-a]pyrimidin-3-yl)-N,N-diethylacetamide]
chromatographic logP (LogP HPLC): 3.16 ± 0.1
CBR, % @ 10^−5M [3]: 50% @ 10^−5M

— patent US20100209345A1, “Fluorinated Ligands for Targeting Peripheral Benzodiazepine Receptors” (Australian Nuclear Science & Technology Organisation, priority 2006, published 2010)
